Measured values as given in PubChem BioAssay (NCI).
“And” between values parts separate entries of the source, which are not always exact repeats. Equal entries are not always repeated.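 Method: 48-hour compound exposure of cells in 96-well plates, five concentrations, linear interpolation of endpoints. Abbreviation: GI50, concentration required for 50% inhibition of growth. TGI: total growth inhibition.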

Tests used:
Test in all cases: NCI anticancer screen, dose series, 48 h
[1] = system: A549 NSCLC
[2] = system: CAKI-1 renal
[3] = system: CCRF-CEM leukemia
[4] = system: HOP-62 NSCLC
[5] = system: KM12 colon
[6] = system: RPMI-8226 leukemia
[7] = system: SF-268 CNS
[8] = system: SNB-19 CNS
[9] = system: U251 CNS
[10] = system: UACC-257 melanoma

Row | SMILES | GI50 [1] | TGI [1] [µM] | GI50 [2] [nM] | TGI [2] | GI50 [3] | TGI [3] [µM] | GI50 [4] | TGI [4] | GI50 [5] | TGI [5] | GI50 [6] | TGI [6] | GI50 [7] | TGI [7] | GI50 [8] | TGI [8] | GI50 [9] | TGI [9] | GI50 [10] [nM] | TGI [10]
1 | COc1ccccc1/C=C/C(=O)/C=C/c1ccccc1O | 1270 nM | 3.73 | 1790 | 5.53 µM | 200 nM | 0.544 | 3060 nM | 6.63 µM | 369 nM | 1.5 µM | 164 nM | 0.401 µM | 1340 nM | 6.13 µM | 1480 nM | 2.94 µM | 326 nM | 1.28 µM | 1710 | 3.63 µM
2 | CNC(=O)c1cc2c(Oc3ccc(NC(=O)C4(C(=O)Nc5ccc(F)cc5)CC4)cc3)ccnc2cc1OC | 2820 nM | 16.9 | 1520 | 3.33 µM | 3000 nM | > 100 | 2670 nM | > 100 µM | 196 nM | > 100 µM | 2600 nM | 55.9 µM | 3060 nM | > 100 µM | 8020 nM | > 100 µM | 3510 nM | > 100 µM | 3120 | > 100 µM
3 | CC(=O)[O-].CC(=O)[O-].CC(=O)[O-].CC(=O)[O-].[Mo+2].[Mo+2] | > 100000 nM | > 100 | > 100000 | > 100 µM | > 100000 nM | > 100 | > 100000 nM | > 100 µM | > 100000 nM | > 100 µM | > 100000 nM | > 100 µM | > 100000 nM | > 100 µM | > 100000 nM | > 100 µM | > 100000 nM | > 100 µM | > 100000 | > 100 µM
4 | CCCCCCCCCCCCCC(=O)OCC1OC(=O)CC1O (centres undefined) |  | > 100 |  | > 100 µM |  | > 100 |  | > 100 µM |  | > 100 µM |  | > 100 µM |  | > 100 µM |  | > 100 µM |  | > 100 µM |  | > 100 µM
5 | COC(=O)/C(C#N)=C1\CCC(C(=O)OC)N1C (centres undefined) |  | > 100 |  | > 100 µM |  | > 100 |  | > 100 µM |  | > 100 µM |  | > 100 µM |  | > 100 µM |  | > 100 µM |  | > 100 µM |  | > 100 µM
6 | CC(=O)OCC1OC(n2cc([N+](=O)[O-])c(=O)[nH]c2=O)C(OC(C)=O)C(OC(C)=O)C1OC(C)=O (centres undefined) |  | > 100 |  | > 100 µM |  | > 100 |  | > 100 µM |  | > 100 µM |  | > 100 µM |  | > 100 µM |  | > 100 µM |  | > 100 µM |  | > 100 µM
7 | COc1c(Br)cc(Br)c(OC)c1-c1[nH]c(Br)c(Br)c1Br |  | 19.2 |  | 9.1 µM |  | 20.5 |  | 21.3 µM |  | 21.1 µM |  | 13.2 µM |  | 15.1 µM |  | > 100 µM |  | 25.7 µM |  | 19.2 µM
8 | Cc1nc(Nc2n[nH]c3c2CN(C(=O)N[C@H](CN(C)C)c2ccccc2)C3(C)C)c2sccc2n1 | 91.1 nM and 291 nM | > 50.9 |  | > 5.08 µM and 51.9 µM | 286 nM and 400 nM | > 25.1 | 72.4 nM and 129 nM | 5.12 µM and 7.06 µM | 49.3 nM and 73.9 nM | > 4.68 µM and 4.45 µM | 148 nM and 107 nM | > 4.74 µM and 5.69 µM | 177 nM and 427 nM | > 4.61 µM and 5.23 µM | 57.5 nM and 54.6 nM | > 6.54 µM and 3.75 µM | 24.2 nM and 32.5 nM | > 7.15 µM and 8.11 µM | < 10.6 | 1.27 µM and 4.34 µM
9 | Cc1nnc(N/N=C(/C(=O)C(C#N)c2ccccc2)C(C#N)c2ccccc2)n1N (centres undefined) |  | 49.3 |  | > 56 µM |  | 15.9 |  | > 100 µM |  | > 55.4 µM |  | 85.8 µM |  | > 61.3 µM |  | > 100 µM |  | > 83.1 µM |  | 13.2 µM
